Consider 1 molecule from patent US20260217776A1, “COMPOUND WITH ANTITUMOR ACTIVITY, COR[…] AND COR[…]” (priority 2023, published 2026).

Like-named read-outs stand apart in the source and are kept apart here. Bridge positions count the residues as written; N and C are the ends. Peptide text beside a SMILES is read from it.

The test system of series [1] is KB31 human epidermoid carcinoma cell line. The settings on record: for cell viability: KB31 line, peptide 150 μM, untreated 100%. How it is done:
(§1) The cytotoxic activity assays were performed using a […] human epidermoid carcinoma cell line (American Type Culture Collection) and, as control, non-tumor cell lines of normal dermal fibroblasts (NDFa) and immortalized human keratinocytes (HACAT).
(§2) The used cells were placed in culture dishes (Corning®) and treated with the peptide (at a concentration of 150 μM) for 1 day and 6 days. In parallel, the same lines were prepared, without being treated with the peptide, as a negative control.
(§3) The analyzes were performed with a resazurin-based cytotoxicity assay (Sigma Aldrich) and a trypan blue exclusion assay.

In series [2] the test system is immortalized human keratinocytes (HACAT). The experiment in a line: apoptotic activity assay (BD cell viability kit). The settings on record: HACAT line, peptide 150 μM. It is filed as cell-based. The method, then: (§4) The same cell lines were used to verify the apoptotic activity of the peptide, providing the same treatment and the same negative controls. The percentage of apoptotic cells was determined using a BD™ cell viability kit (BD Biosciences), following the manufacturer's instructions. The results are expressed as average values in percentages taking into account the standard error of the mean (SEM).

Series [3] has as its system normal dermal fibroblasts (NDFa). The series is described as follows: apoptotic activity assay (BD cell viability kit). It is filed as cell-based. Conditions: NDFa line, peptide 150 μM. The method, then:
as §4

For series [4], the system named is KB31 human epidermoid carcinoma cell line. The series is described as follows: apoptotic activity assay (BD cell viability kit). It is filed as cell-based. Conditions: peptide 150 μM. The method, then: as §4
Series [5] in a line: in vitro. How it is done:
as §1, §2, §3

Where [6] appears, read: human, immortalized keratinocytes (HACAT).
[7] abbreviates: normal dermal fibroblasts (NDFa).

By cell viability is commonly meant a read-out of living cells in per cent, often relative to untreated cells. The low end stands for a greater loss of cells, the high end for better survival. The viability is a per cent measure of how many cells are alive, often set against a control. `CC(C)C[C@@H]1NC(=O)[C@H](CC(=O)O)NC(=O)[C@H](CC(N)=O)NC(=O)[C@H](CCCCN)NC(=O)[C@H](CCCNC(=N)N)NC(=O)CNC(=O)[C@H](CCC(=O)O)NC(=O)[C@H](Cc2c[nH]cn2)NC(=O)CNC(=O)[C@H](CCCNC(=N)N)NC(=O)[C@H](CCC(=O)O)NC(=O)[C@H](CO)NC(=O)[C@H](CC(C)C)NC(=O)[C@H]([C@@H](C)O)NC(=O)[C@H](CC(C)C)NC(=O)[C@H](CC(C)C)NC(=O)[C@@H]2CCCN2C(=O)[C@@H](NC(=O)[C@@H](N)CO)CSSC[C@@H](C(=O)N[C@@H](CCCNC(=N)N)C(=O)O)NC(=O)[C@H](CCC(=O)O)NC(=O)[C@H](C(C)C)NC(=O)[C@H](CCCCN)NC(=O)[C@H](CCCCN)NC1=O` [peptide] (H-SCPLLTLSERGHEGRKNDLKKVECR-OH; disulfide 2-24; N-terminus assumed): the cell viability in series [1] (1 day) is reported as 77%; in series [1] (6 days), “approximately 45%”. Moreover, in series [1] (KB31 tumor cells versus non-tumor NDFa and HACAT, cytotoxic and apoptotic assays), the “selectivity toward tumor cells” value is “good selectivity toward tumor cells”. The “apoptosis (percentage of apoptotic cells)” value in series [2] (1 day) is on record as “less than 5%”; in series [2] (6 days) it was “less than 5%”; in series [3] (1 day), “less than 5%”; in series [3] (6 days) it was “less than 5%”; in series [4] (1 day) it was “less than 5%”; in series [4] (6 days, negative control just over 10%), “more than 50%”. Moreover, the viability at 1 day, 150 μM in series [5] (setting [6]) was approximately 85%; in series [5] (setting [7]), approximately 80%. Besides, the viability at 6 days, 150 μM in series [5] (setting [6]) is approximately 85%; in series [5] (setting [7]), approximately 80%.
